What was measured:
[1] = biological target: T1, mouse TLR4 (Mus musculus, UniProt Q9JHF9+Q9QUK6); assay: Murine TLR4 HEK Blue NFκB/SEAP reporter assay; assay type: cell-based; settings: mTLR4 HEK transfectoma, 312 nM to 10 μM; Cmpd 1 set at 100
T1 construct: host or cells: HEK293 (HEK Blue) cells with NFκB/SEAP reporter
T1 sequence (Q9QUK6 26-835): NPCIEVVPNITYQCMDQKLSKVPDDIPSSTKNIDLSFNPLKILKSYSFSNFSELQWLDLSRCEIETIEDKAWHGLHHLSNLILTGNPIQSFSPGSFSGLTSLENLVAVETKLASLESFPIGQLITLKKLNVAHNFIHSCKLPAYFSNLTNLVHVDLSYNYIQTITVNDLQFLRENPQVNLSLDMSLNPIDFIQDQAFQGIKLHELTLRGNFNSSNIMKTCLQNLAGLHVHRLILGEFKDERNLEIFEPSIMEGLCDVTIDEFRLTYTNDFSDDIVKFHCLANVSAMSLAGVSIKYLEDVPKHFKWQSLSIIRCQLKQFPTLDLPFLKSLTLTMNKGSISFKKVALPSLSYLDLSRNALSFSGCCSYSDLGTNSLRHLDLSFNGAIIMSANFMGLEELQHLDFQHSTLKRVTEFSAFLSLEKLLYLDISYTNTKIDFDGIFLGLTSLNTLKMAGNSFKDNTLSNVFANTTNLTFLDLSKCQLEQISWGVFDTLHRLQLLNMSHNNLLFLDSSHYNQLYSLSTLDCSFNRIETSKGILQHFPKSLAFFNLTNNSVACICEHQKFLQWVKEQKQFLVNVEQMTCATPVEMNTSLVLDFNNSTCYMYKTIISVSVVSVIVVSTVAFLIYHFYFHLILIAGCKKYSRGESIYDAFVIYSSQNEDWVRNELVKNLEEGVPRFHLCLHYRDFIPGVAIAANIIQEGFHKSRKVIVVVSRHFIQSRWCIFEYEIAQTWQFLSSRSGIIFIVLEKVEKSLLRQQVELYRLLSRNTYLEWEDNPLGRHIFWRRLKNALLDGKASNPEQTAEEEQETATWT
T1 sequence (Q9JHF9 19-160): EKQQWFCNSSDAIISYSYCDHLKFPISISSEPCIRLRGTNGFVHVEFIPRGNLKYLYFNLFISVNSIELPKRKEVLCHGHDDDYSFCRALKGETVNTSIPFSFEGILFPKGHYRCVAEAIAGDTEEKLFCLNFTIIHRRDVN
Method: (§1) The above assays were utilized to compare the derivatives of the lead pyrimidoindole for their ability to activate mouse and human TLR4. […] Each cytokine induction curve was first converted to a percent activity curve, and then the AUC of the percent activity curve was calculated. The process of converting to a percent activity curve allowed subtracting background and adjusting for plate-to-plate variation.
(§2) The culture supernatants were harvested after a 20-24 h incubation period. SEAP activity in the supernatants was determined by a colorimetric assay, using either the SEAPorter Assay Kit (Imgenex), with absorbance read at 405 nm, or QuantiBlue (Invivogen), with absorbance read at 630 nm.

[2] = biological target: T2, human TLR4 (Homo sapiens, UniProt O00206+Q9Y6Y9); assay: Human TLR4 HEK Blue NFκB/SEAP reporter assay; assay type: cell-based; settings: hTLR4 HEK293 transfectoma; all compounds tested at 10 μM; Cmpd 1 set at 100
T2 construct: host or cells: HEK293 (HEK Blue) cells with NFκB/SEAP reporter
Method: as §1, §2

T2 sequence (O00206 24-839): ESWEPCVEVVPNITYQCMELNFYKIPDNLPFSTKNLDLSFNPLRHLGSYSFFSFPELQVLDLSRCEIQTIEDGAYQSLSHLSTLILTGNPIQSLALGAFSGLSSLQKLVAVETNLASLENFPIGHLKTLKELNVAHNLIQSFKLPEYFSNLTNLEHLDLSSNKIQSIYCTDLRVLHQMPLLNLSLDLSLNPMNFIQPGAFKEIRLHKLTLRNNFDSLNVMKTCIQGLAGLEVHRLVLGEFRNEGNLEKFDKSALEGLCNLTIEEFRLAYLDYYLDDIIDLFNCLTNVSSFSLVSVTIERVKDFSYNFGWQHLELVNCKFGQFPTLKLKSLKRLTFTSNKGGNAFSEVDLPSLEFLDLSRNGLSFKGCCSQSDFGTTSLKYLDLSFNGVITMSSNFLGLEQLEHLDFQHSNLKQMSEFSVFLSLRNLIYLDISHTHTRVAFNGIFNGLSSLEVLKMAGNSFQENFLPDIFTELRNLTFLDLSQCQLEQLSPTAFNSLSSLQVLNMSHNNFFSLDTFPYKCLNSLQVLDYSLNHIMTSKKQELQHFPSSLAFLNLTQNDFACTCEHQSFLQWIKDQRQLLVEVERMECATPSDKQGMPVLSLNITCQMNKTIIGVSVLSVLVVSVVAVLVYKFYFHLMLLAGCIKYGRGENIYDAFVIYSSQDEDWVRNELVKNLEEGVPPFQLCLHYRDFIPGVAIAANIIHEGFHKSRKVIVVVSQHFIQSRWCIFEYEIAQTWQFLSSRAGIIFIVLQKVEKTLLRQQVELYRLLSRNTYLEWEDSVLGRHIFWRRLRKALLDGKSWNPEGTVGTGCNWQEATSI
T2 sequence (Q9Y6Y9 19-160): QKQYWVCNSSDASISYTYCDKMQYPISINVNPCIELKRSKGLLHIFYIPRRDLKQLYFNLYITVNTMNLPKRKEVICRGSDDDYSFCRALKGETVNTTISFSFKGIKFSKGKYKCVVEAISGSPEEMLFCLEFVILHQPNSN

Structure (SMILES)	mouse TLR4, area under curve (AUC) values normalized to Cmpd 1 [1]	human TLR4, values normalized to Cmpd 1 [2]
CCCCCCNC(=O)CSc1nc2c([nH]c3ccccc32)c(=O)n1-c1ccccc1 [Compound 25, N-hexyl-2-((4-oxo-3-phenyl-4,5-dihydro-3H-pyrimido[5,4-b]indol-2-yl)thio)acetamide]	4	8
O=C(CSc1nc2c([nH]c3ccccc32)c(=O)n1-c1ccccc1)NCc1ccco1 [Compound 19, N-(furan-2-ylmethyl)-2-((4-oxo-3-phenyl-4,5-dihydro-3H-pyrimido[5,4-b]indol-2-yl)thio)acetamide]	5	27
CCNC(=O)CSc1nc2c([nH]c3ccccc32)c(=O)n1-c1ccccc1 [Compound 22, N-ethyl-2-((4-oxo-3-phenyl-4,5-dihydro-3H-pyrimido[5,4-b]indol-2-yl)thio)acetamide]	<1	8
CCCCCn1c2ccccc2c2nc(SCC(=O)NC3CCCCC3)n(-c3ccccc3)c(=O)c21 [Compound 49, N-cyclohexyl-2-((4-oxo-5-pentyl-3-phenyl-4,5-dihydro-3H-pyrimido[5,4-b]indol-2-yl)thio)acetamide]	6	11
CC(C)(C)NC(=O)CSc1nc2c([nH]c3ccccc32)c(=O)n1-c1ccccc1 [Compound 32, N-(tert-butyl)-2-((4-oxo-3-phenyl-4,5-dihydro-3H-pyrimido[5,4-b]indol-2-yl)thio)acetamide]	<1	6
O=C(CSc1nc2c([nH]c3ccccc32)c(=O)n1-c1ccccc1)Nc1nccs1 [Compound 21, 2-((4-oxo-3-phenyl-4,5-dihydro-3H-pyrimido[5,4-b]indol-2-yl)thio)-N-(thiazol-2-yl)acetamide]	2	12
O=C(CSc1nc2c([nH]c3ccccc32)c(=O)n1-c1ccccc1)Nc1ccc2ccccc2c1 [Compound 18, N-(naphthalen-2-yl)-2-((4-oxo-3-phenyl-4,5-dihydro-3H-pyrimido[5,4-b]indol-2-yl)thio)acetamide]	2	21
CCCCCNC(=O)CSc1nc2c([nH]c3ccccc32)c(=O)n1-c1ccccc1 [Compound 24, 2-((4-oxo-3-phenyl-4,5-dihydro-3H-pyrimido[5,4-b]indol-2-yl)thio)-N-pentylacetamide]	42	23
CCC(CC)NC(=O)CSc1nc2c([nH]c3ccccc32)c(=O)n1-c1ccccc1 [Compound 31, 2-((4-oxo-3-phenyl-4,5-dihydro-3H-pyrimido[5,4-b]indol-2-yl)thio)-N-(pentan-3-yl)acetamide]	8	11
CCCCCCCCCCCCn1c2ccccc2c2nc(SCC(=O)NC3CCCCC3)n(-c3ccccc3)c(=O)c21 [Compound 50, N-cyclohexyl-2-((5-dodecyl-4-oxo-3-phenyl-4,5-dihydro-3H-pyrimido[5,4-b]indol-2-yl)thio)acetamide]	4	10
O=C(CSc1nc2c([nH]c3ccccc32)c(=O)n1-c1ccccc1)NC1CCCC1 [Compound 11, N-cyclopentyl-2-((4-oxo-3-phenyl-4,5-dihydro-3H-pyrimido[5,4-b]indol-2-yl)thio)acetamide]	28	23
CCCCCCCC/C=C\CCCCCCCC(=O)OCC(COP(=O)(O)OCCNC(=O)CSc1nc2c([nH]c3ccccc32)c(=O)n1-c1ccccc1)OC(=O)CCCCCCC/C=C\CCCCCCCC (stereo not drawn) [Compound 35, (Z)-3-((hydroxy(2-(2-((4-oxo-3-phenyl-4,5-dihydro-3H-pyrimido[5,4-b]indol-2-yl)thio)acetamido)ethoxy)phosphoryl)oxy)propane-1,2-diyl dioleate]	<1	<1
